Measured values as given in patent publication US20230158157A1, “POTENT AND SELECTIVE DEGRADERS OF ALK” (DANA-FARBER CANCER INSTITUTE, INC., priority 2020, published 2023).
Where two headings read alike, the source gives them in different places. Each block holds one compound with its values, some of them ahead of it.

Legend:
[1] = tested on: H3122 cells; assay: CTG; type: cell-based
[2] = molecular target: T1, EML4-ALK (Homo sapiens, UniProt Q9UM73); assay: EML4-ALK HiBit degradation assay in CRISPR-tagged H3122 cells (Nano-Glo HiBit Lytic Detection); type: cell-based
T1 construct: endogenous in cells; host or cells: H3122 (NSCLC), single-cell clone after CRISPR knock-in of HiBit; the other entry of the earlier key: EML4 (Q9HC35, Echinoderm microtubule-associated protein-like 4)
Description: (§1) NSCLC cell line H3122 was subjected to CRISPR to express EML4-ALK with HiBit-tag on its c-terminal. Single-cell clone was selected and expanded for the following assays that monitor endogenous EML4-ALK level in high throughput manner. Cells were seeded in 384-well white Tissue-culture plates at 3000 cells/well for 8 hours. […] HiBit signal was assessed using Nano-Glo® HiBit Lytic Detection System (Promega™). Degrader-treated was normalized by DMSO-treated controls and DC50 and Dmax were generated by GraphPad Prism® 8.0.
as §1, with “its c-terminus. A single-cell” for “its c-terminal. Single-cell”, “Degrader-treated cells were” for “Degrader-treated was”
as §1, with “its C-terminus. A single-cell” for “its c-terminal. Single-cell”, “Degrader-treated cells were” for “Degrader-treated was”

[3] = Homo sapiens, NCI-H3122, Table 2, read-out: CTG IC50
[4] = Table 1, first DC50 column, H3122 EML4-ALK-HiBit, 16 hours, read-out: Degradation DC50
[5] = Table 1, second DC50 column, H3122 EML4-ALK-HiBit, 16 hours, read-out: Degradation DC50
[6] = Table 1, average DC50, read-out: Degradation Avg. DC50
[7] = Homo sapiens, NCI-H3122, Table 1, read-out: CTG IC50
[8] = NCI-H3122, Table 1, first Dmax column, H3122 EML4-ALK-HiBit, 16 hours, read-out: Degradation Dmax
[9] = NCI-H3122, Table 1, second Dmax column, H3122 EML4-ALK-HiBit, 16 hours, read-out: Degradation Dmax
[10] = NCI-H3122, Table 1, average Dmax, read-out: Degradation Avg. Dmax
[11] = NCI-H3122, Table 2, first Dmax column, H3122 EML4-ALK-HiBit, 16 hours, read-out: Degradation Dmax
[12] = NCI-H3122, Table 2, average Dmax, read-out: Degradation Avg. Dmax
[13] = Table 2, first DC50 column, H3122 EML4-ALK-HiBit, 16 hours, read-out: Degradation DC50
[14] = Table 2, average DC50, read-out: Degradation Avg. DC50

T1 sequence (Q9UM73 with tags, fused parts or gaps): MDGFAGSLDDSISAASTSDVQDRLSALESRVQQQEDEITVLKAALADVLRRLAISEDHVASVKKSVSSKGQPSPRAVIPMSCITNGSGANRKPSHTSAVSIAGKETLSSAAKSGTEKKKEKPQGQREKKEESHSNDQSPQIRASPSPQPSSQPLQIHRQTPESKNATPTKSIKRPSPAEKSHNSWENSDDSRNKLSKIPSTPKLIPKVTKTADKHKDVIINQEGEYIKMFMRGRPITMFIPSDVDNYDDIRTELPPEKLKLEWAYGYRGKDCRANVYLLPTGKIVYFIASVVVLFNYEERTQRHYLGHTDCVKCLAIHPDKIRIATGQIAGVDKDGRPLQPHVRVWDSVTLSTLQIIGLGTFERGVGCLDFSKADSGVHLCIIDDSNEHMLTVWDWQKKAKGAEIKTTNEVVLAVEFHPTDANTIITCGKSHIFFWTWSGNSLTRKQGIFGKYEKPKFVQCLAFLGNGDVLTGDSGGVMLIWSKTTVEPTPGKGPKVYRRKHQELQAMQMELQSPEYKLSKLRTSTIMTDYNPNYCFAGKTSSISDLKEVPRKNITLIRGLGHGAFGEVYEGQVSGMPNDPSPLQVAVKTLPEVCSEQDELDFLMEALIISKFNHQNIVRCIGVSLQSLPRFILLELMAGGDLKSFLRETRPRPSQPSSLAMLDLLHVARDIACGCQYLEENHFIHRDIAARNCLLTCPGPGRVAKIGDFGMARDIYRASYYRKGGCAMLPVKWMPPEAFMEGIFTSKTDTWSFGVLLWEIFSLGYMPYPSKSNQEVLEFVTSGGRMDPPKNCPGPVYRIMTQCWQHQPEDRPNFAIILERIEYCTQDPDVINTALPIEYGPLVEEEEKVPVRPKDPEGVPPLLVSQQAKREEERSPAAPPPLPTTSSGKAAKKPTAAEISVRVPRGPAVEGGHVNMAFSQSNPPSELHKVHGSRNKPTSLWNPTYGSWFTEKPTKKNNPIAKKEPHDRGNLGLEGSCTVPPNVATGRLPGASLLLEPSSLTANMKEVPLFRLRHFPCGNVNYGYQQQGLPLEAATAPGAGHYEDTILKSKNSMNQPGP

SMILES: COc1cc(CCN(C)C(=O)CCOCCOCCNc2cccc3c2C(=O)N(C2CCC(=O)NC2=O)C3=O)c(C)cc1Nc1ncc(Cl)c(Nc2ccccc2P(C)(C)=O)n1 (centres unmarked) [Compound 67]
IC50 [1, 3]: 2290 nM

SMILES: COc1cc(CCN(C)CCCCCNc2cccc3c2C(=O)N(C2CCC(=O)NC2=O)C3=O)c(C)cc1Nc1ncc(Cl)c(Nc2ccccc2S(=O)(=O)C(C)C)n1 (centres unmarked) [Compound 50]
IC50 ([1]; Table 1, read-out: CTG IC50): 20.6 nM
DC50 [2, 4]: 57 nM
DC50 [2, 5]: 24 nM
DC50 [2, 6]: 41 nM

SMILES: COc1cc(CCN(C)C(=O)CCCNc2cccc3c2C(=O)N(C2CCC(=O)NC2=O)C3=O)c(C)cc1Nc1ncc(Cl)c(Nc2ccccc2P(C)(C)=O)n1 (centres unmarked) [Compound 64]
IC50 [1, 3]: 301 nM

SMILES: CN[C@@H](C)C(=O)N[C@H](C(=O)N1Cc2cc(OCCCCCNCCc3cc(OC)c(Nc4ncc(Cl)c(Nc5ccccc5S(=O)(=O)C(C)C)n4)cc3C)ccc2C[C@H]1C(=O)N[C@H]1CCCc2ccccc21)C(C)(C)C [Compound 39]
IC50 ([1]; Homo sapiens, NCI-H3122, Table 1, unheaded column beside IC50 (nM), read-out: CTG IC50): 414 nM
IC50 [1, 7]: 1480 nM
Dmax [2, 8]: 79.1%
Dmax [2, 9]: 99.3%
Dmax [2, 10]: 89.2%
DC50 [2, 4]: 402 nM
DC50 [2, 5]: 184 nM
DC50 [2, 6]: 293 nM

SMILES: COc1cc(CCN(C)C(=O)CCOCCOCCOCC#Cc2cccc3c2C(=O)N(C2CCC(=O)NC2=O)C3=O)c(C)cc1Nc1ncc(Cl)c(Nc2ccccc2P(C)(C)=O)n1 (centres unmarked) [Compound 63]
IC50 [1, 3]: > 10000 nM
Dmax [2, 11]: 27.3%
Dmax [2, 12]: 27.3%
DC50 [2, 13]: 3910 nM
DC50 [2, 14]: 3910 nM

SMILES: COc1cc(CCN(C)C(=O)CCOCCOCCOCC#Cc2cccc3c2C(=O)N(C2CCC(=O)NC2=O)C3=O)c(C)cc1Nc1ncc(Cl)c(Nc2ccccc2S(=O)(=O)C(C)C)n1 (centres unmarked) [compound 11, N-(4-((5-chloro-4-((2-(isopropylsulfonyl)phenyl)amino)pyrimidin-2-yl)amino)-5-methoxy-2-methylphenethyl)-3-(2-(2-((3-(2-(2,6-dioxopiperidin-3-yl)-1,3-dioxoisoindolin-4-yl)prop-2-yn-1-yl)oxy)ethoxy)ethoxy)-N-methylpropanamide]
IC50 [1, 7]: 219 nM
Dmax [2, 8]: 53.3%
Dmax [2, 10]: 53.3%
DC50 [2, 4]: 502 nM
DC50 [2, 6]: 302 nM

SMILES: CC[C@@H](NC(=O)C1CC(NC(=O)CCCCCCC(=O)N(C)CCc2cc(OC)c(Nc3ncc(Cl)c(Nc4ccccc4S(=O)(=O)C(C)C)n3)cc2C)CN1C(=O)[C@@H](NC(=O)[C@H](C)NC)C(C)(C)C)c1ccccc1 (some centres unmarked) [Compound 55]
IC50 [1, 7]: 296 nM
Dmax [2, 8]: 74.6%
Dmax [2, 9]: 102%
Dmax [2, 10]: 88.2%
DC50 [2, 4]: 624 nM
DC50 [2, 5]: 360 nM
DC50 [2, 6]: 492 nM

SMILES: COc1cc(CCN(C)C(=O)CCOCCOCCNC(=O)COc2cccc3c2C(=O)N(C2CCC(=O)NC2=O)C3=O)c(C)cc1Nc1ncc(Cl)c(Nc2ccccc2P(C)(C)=O)n1 (centres unmarked) [Compound 60]
IC50 ([1]; Table 2, read-out: CTG IC50): > 10000 nM

SMILES: CC[C@@H](NC(=O)[C@@H]1C[C@H](NC(=O)CCCCCCCC(=O)N(C)CCc2cc(OC)c(Nc3ncc(Cl)c(Nc4ccccc4P(C)(C)=O)n3)cc2C)CN1C(=O)[C@@H](NC(=O)[C@H](C)NC)C(C)(C)C)c1ccccc1 [compound 75, N^1-(4-((5-chloro-4-((2-(dimethylphosphoryl)phenyl)amino)pyrimidin-2-yl)amino)-5-methoxy-2-methylphenethyl)-N^9-((3S,5S)-1-((S)-3,3-dimethyl-2-((S)-2-(methylamino)propanamido)butanoyl)-5-(((R)-1-phenylpropyl)carbamoyl)pyrrolidin-3-yl)-N^1-methylnonanediamide]
Dmax [2, 11]: 42.1%
DC50 [2, 13]: 381 nM

SMILES: COc1cc(CCNCCCCCC#Cc2cccc3c2C(=O)N(C2CCC(=O)NC2=O)C3=O)c(C)cc1Nc1ncc(Cl)c(Nc2ccccc2S(=O)(=O)C(C)C)n1 (centres unmarked) [compound 49, 4-(7-((4-((5-chloro-4-((2-(isopropylsulfonyl)phenyl)amino)pyrimidin-2-yl)amino)-5-methoxy-2-methylphenethyl)amino)hept-1-yn-1-yl)-2-(2,6-dioxopiperidin-3-yl)isoindoline-1,3-dione]
IC50 ([1]; Homo sapiens, NCI-H3122, read-out: CTG IC50): 96.3 nM
IC50 [1, 7]: 66.9 nM

SMILES: COc1cc(CCN(C)C(=O)CCCCCCC(=O)N[C@H](C(=O)N2C[C@H](O)CC2C(=O)N[C@@H](C)c2ccc(-c3scnc3C)cc2)C(C)(C)C)c(C)cc1Nc1ncc(Cl)c(Nc2ccccc2P(C)(C)=O)n1 (stereo partly drawn) [compound 70, N^1-(4-((5-chloro-4-((2-(dimethylphosphoryl)phenyl)amino)pyrimidin-2-yl)amino)-5-methoxy-2-methylphenethyl)-N^8-((S)-1-((2S,4R)-4-hydroxy-2-(((S)-1-(4-(4-methylthiazol-5-yl)phenyl)ethyl)carbamoyl)pyrrolidin-1-yl)-3,3-dimethyl-1-oxobutan-2-yl)-N′-methyloctanediamide]
IC50 [1, 3]: 371 nM

Results, then the compound that gave them:

IC50 [1, 3]: > 10000 nM
Dmax [2, 11]: 27.8%
Dmax [2, 12]: 27.8%
DC50 [2, 13]: 4380 nM
DC50 [2, 14]: 4380 nM
SMILES: COc1cc(CCN(C)C(=O)CCCCCC#Cc2cccc3c2C(=O)N(C2CCC(=O)NC2=O)C3=O)c(C)cc1Nc1ncc(Cl)c(Nc2ccccc2P(C)(C)=O)n1 (centres unmarked) [Compound 62]

IC50 [1, 3]: 1720 nM
Dmax [2, 11]: 33.7%
Dmax [2, 12]: 33.7%
DC50 [2, 13]: 3740 nM
DC50 [2, 14]: 3740 nM
SMILES: COc1cc(CCN(C)C(=O)CCCCCCCCNC(=O)COc2cccc3c2C(=O)N(C2CCC(=O)NC2=O)C3=O)c(C)cc1Nc1ncc(Cl)c(Nc2ccccc2P(C)(C)=O)n1 (centres unmarked) [Compound 59]

IC50 [1, 3]: > 10000 nM
SMILES: COc1cc(CCN(C)C(=O)CCCCCNC(=O)COc2cccc3c2C(=O)N(C2CCC(=O)NC2=O)C3=O)c(C)cc1Nc1ncc(Cl)c(Nc2ccccc2P(C)(C)=O)n1 (centres unmarked) [Compound 58]

IC50 [1, 7]: 25.1 nM
Dmax [2, 8]: 44.8%
Dmax [2, 9]: 33%
Dmax [2, 10]: 38.9%
DC50 [2, 4]: 100 nM
DC50 [2, 5]: 34 nM
DC50 [2, 6]: 67 nM
SMILES: COc1cc(CCN(C)C(=O)CCOCCOCCNc2cccc3c2C(=O)N(C2CCC(=O)NC2=O)C3=O)c(C)cc1Nc1ncc(Cl)c(Nc2ccccc2S(=O)(=O)C(C)C)n1 (centres unmarked) [compound 4, N-(4-((5-chloro-4-((2-(isopropylsulfonyl)phenyl)amino)pyrimidin-2-yl)amino)-5-methoxy-2-methylphenethyl)-3-(2-(2-((2-(2,6-dioxopiperidin-3-yl)-1,3-dioxoisoindolin-4-yl)amino)ethoxy)ethoxy)-N-methylpropanamide]

Dmax [2, 11]: 47.1%
Dmax ([2]; NCI-H3122, Table 2, second Dmax column, H3122 EML4-ALK-HiBit, 16 hours, read-out: Degradation Dmax): 47.2%
Dmax [2, 12]: 47.1%
DC50 [2, 13]: 506 nM
DC50 ([2]; Table 2, second DC50 column, H3122 EML4-ALK-HiBit, 16 hours, read-out: Degradation DC50): 480 nM
DC50 [2, 14]: 490 nM
SMILES: CC[C@@H](NC(=O)[C@@H]1C[C@H](NC(=O)CCCCCCC(=O)N(C)CCc2cc(OC)c(Nc3ncc(Cl)c(Nc4ccccc4P(C)(C)=O)n3)cc2C)CN1C(=O)[C@@H](NC(=O)[C@H](C)NC)C(C)(C)C)c1ccccc1 [Compound 74]

IC50 [1, 3]: 477 nM
SMILES: COc1cc(CCN(C)C(=O)CCCCCCCC(=O)N[C@H](C(=O)N2C[C@H](O)C[C@H]2C(=O)N[C@@H](C)c2ccc(-c3scnc3C)cc2)C(C)(C)C)c(C)cc1Nc1ncc(Cl)c(Nc2ccccc2P(C)(C)=O)n1 [compound 69, N^1-(4-((5-chloro-4-((2-(dimethylphosphoryl)phenyl)amino)pyrimidin-2-yl)amino)-5-methoxy-2-methylphenethyl)-N^9-((S)-1-((2S,4R)-4-hydroxy-2-(((S)-1-(4-(4-methylthiazol-5-yl)phenyl)ethyl)carbamoyl)pyrrolidin-1-yl)-3,3-dimethyl-1-oxobutan-2-yl)-N^1-methylnonanediamide]
